Measurements published in PMC3866151, “Phenylthiophenecarboxamide Antagonists of the Olfactory Receptor Co-Receptor Subunit from a Mosquito” (PLoS ONE, 2013).
Where two headings read alike, the source gives them in different places.

Experiments:
Type in all cases: cell-based
[1] = target: T1, Cqui\Orco+Cqui\Or21 (Culex quinquefasciatus, UniProt Q309I4); test: Antagonism of Orco agonist (OLC12) activation of the OR expressed in Xenopus oocytes, two-electrode voltage clamp; settings: for Inhibition of the OLC12 response compared with OX1a (screen): 100 µM compound; for Inhibition of the OLC12 response compared with OX1a (screen) / Antagonist activity compared with the parent analog or OX1a (second screen): 3 µM OLC12; for IC50: read-out: IC50 for inhibition of Cqui\Orco+Cqui\Or21 activation by OLC12; for Mechanism of inhibition of Orco agonist (OLC12) activation: OLC12 raised from 3 µM to 30 µM; for Antagonist activity compared with the parent analog or OX1a (second screen): 30 µM compound
Experimental: (§1) Oocytes were surgically removed from mature Xenopus laevis frogs. Follicle cells were removed by treatment with Collagenase B (Boehringer Mannhem) for 2 hours at room temperature. Capped cRNA encoding each OR subunit was generated using mMessage mMachine kits (Ambion). For heteromeric ORs, 25 ng of cRNA encoding each OR subunit was injected into Stage V-VI Xenopus oocytes. For expression of Orco alone, 50 ng of cRNA was injected. Oocytes were incubated at 18°C in Barth's saline (in mM: 88 NaCl, 1 KCl, 2.4 NaHCO3, 0.3 CaNO3, 0.41 CaCl2, 0.82 MgSO4, 15 HEPES, pH 7.6, and 150 µg/ml ceftazidime) for 2–5 days prior to electrophysiological recording.
(§2) Odorant and Orco ligand induced currents were recorded under two-electrode voltage clamp, using an automated parallel electrophysiology system (OpusExpress 6000A; Molecular Devices). Oocytes were perfused with ND96 (in mM: 96 NaCl, 2 KCl, 1 CaCl2, 1 MgCl2, 5 HEPES, pH 7.5). Orco ligands were prepared as 50 or 100 mM stock solutions in DMSO and then diluted into ND96 on the day of the experiment. Unless otherwise noted, applications were for 60 sec at a flow rate of 1.0 ml/min, with extensive washing in ND96 at 4.6 ml/min between applications. For the concentration-response protocol in Figure 1d , applications were for 20 sec at a flow rate of 1.65 ml/min. Micropipettes were filled with 3 M KCl and had resistances of 0.2–2.0 MΩ. The holding potential was -70 mV. Current responses, filtered (4-pole, Bessel, low pass) at 20 Hz (-3 db) and sampled at 100 Hz, were captured and stored using OpusXpress 1.1 software (Molecular Devices).
(§3) To screen for antagonist activity, oocytes were exposed to 60 sec applications of OLC12 with 4 min washes between applications (Figures 1B, 3, 4 and 5A,C,E) or 60 sec applications of odorant with 20 min washes between applications (Figures 1C,D and 5B,D,F). Oocytes were then exposed to a 90 sec application of antagonist candidate, immediately followed by a 60 sec co-application of antagonist candidate and OLC12 or odorant. Oocytes were then exposed to a final 60 sec application of OLC12 or odorant. The current response in the presence of antagonist candidate was compared to the preceding responses to OLC12 or odorant alone.
(§4) Initial analysis of electrophysiological data was done using Clampfit 9.1 software (Molecular Devices). Curve fitting and statistical analyses were done using Prism 5 (Graphpad). Concentration-response data were fit to the equation: I = Imax/(1+(EC50/X)^n) where I represents the current response at a given concentration of odorant, X; Imax is the maximal response; EC50 is the concentration of agonist yielding a half maximal response; n is the apparent Hill coefficient. Concentration-inhibition data were fit to the equation: I = Imax / (1+ (X/IC50)^n) where I represents the current response at a given concentration of inhibitor, X; Imax is the maximal response in the absence of inhibitor; IC50 is the concentration of inhibitor present that still allows a half maximal response from odorant; n is the apparent Hill coefficient. Statistical significance was assessed using a two-tailed unpaired t test, an F test, or a one-way analysis of variance followed by the Dunnett's post-test, as appropriate.

[2] = target: T1, Cqui\Orco+Cqui\Or21; test: Inhibition of odorant (3-methylindole) activation of the OR expressed in Xenopus oocytes, two-electrode voltage clamp; settings: for IC50: read-out: IC50 for inhibition of responses to 3MI; for Mechanism of inhibition of odorant activation: 10 nM, 100 nM, 1 µM 3-methylindole
Experimental: as §1, §2, §3, §4

[3] = target: T1, Cqui\Orco+Cqui\Or21; test: Agonist activation (concentration-response) of the OR expressed in Xenopus oocytes, two-electrode voltage clamp
Experimental: as §1, §2, §4

[4] = activated by 3 µM OLC12, Xenopus oocytes

T1 sequence (Q309I4 entry or part of it): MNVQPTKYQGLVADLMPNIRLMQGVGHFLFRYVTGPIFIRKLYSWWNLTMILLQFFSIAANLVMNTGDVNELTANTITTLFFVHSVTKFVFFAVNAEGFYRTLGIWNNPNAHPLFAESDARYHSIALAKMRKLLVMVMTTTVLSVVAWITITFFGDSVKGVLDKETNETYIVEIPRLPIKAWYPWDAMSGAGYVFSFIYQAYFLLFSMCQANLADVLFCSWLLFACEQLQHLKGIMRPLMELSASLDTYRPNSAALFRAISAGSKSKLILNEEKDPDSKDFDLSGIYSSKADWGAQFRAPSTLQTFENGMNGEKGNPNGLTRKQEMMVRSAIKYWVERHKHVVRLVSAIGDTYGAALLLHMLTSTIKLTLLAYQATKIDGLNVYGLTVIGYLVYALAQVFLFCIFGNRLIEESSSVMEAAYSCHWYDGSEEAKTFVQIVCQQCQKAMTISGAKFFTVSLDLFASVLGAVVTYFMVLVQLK

| SMILES | Inhibition of the OLC12 response compared with OX1a (screen) [1] | nH (apparent Hill coefficient of concentration-inhibition curve) [1, 4] | IC50 [1, 4] [µM] | other results |
| --- | --- | --- | --- | --- |
| CCc1ccccc1NC(=O)c1cccs1 [OX1j, N-(2-ethylphenyl)-2-thiophenecarboxamide] | significantly improved antagonist activity | 0.9 ± 0.1 | 5.4 ± 0.4 | – |
| CC(=O)c1cccc(NC(=O)c2cccs2)c1 [OX1i, N-(3-acetylphenyl)-2-thiophenecarboxamide] | significantly improved antagonist activity | 1.3 ± 0.1 | 14 ± 1 | – |
| Cc1cccc(NC(=O)c2cccs2)c1C [OX1k, N-(2,3-dimethylphenyl)-2-thiophenecarboxamide] | significantly improved antagonist activity | 0.8 ± 0.1 | 1.7 ± 0.2 | – |
| CCc1ccc(NC(=O)c2cccs2)cc1 [OX1a, N-(4-ethylphenyl)-2-thiophenecarboxamide] | – | 1.0 ± 0.1 | 51 ± 6 | Mechanism of inhibition of Orco agonist (OLC12) activation [1]: competitive antagonist; IC50 ([2]; 10 nM 3MI): 47 ± 5 µM; Mechanism of inhibition of odorant activation [2]: non-competitive mechanism; IC50 ([2]; 100 nM 3MI): 42 ± 7 µM; IC50 ([2]; 1 µM 3MI): 50 ± 4 µM; Effect on maximal response to 3-methylindole ([2]; 50 µM OX1a co-applied): significantly reduced |
| O=C(Nc1ccc(Br)cc1)c1cccs1 [OX1d, N-(4-bromophenyl)-2-thiophenecarboxamide] | failed to significantly improve antagonist activity | – | – | – |
| Cc1cccc(NC(=O)c2sccc2Cl)c1 [OX1m, 3-chloro-N-(3-methylphenyl)-2-thiophenecarboxamide] | improved antagonist activity | – | – | – |
| CCCC(=O)c1ccc(NC(=O)c2cccs2)cc1 [OX1s, N-(4-butyrylphenyl)-2-thiophenecarboxamide] | – | – | – | Antagonist activity compared with the parent analog or OX1a (second screen) [1]: significant loss of antagonist activity |
| Cc1ccc(NC(=O)c2cccs2)cc1 [OX1b, N-(4-methylphenyl)-2-thiophenecarboxamide] | significantly improved antagonist activity | – | – | – |
| CCc1ccccc1NC(=O)C=Cc1cccs1 [OX4, N-(2-ethylphenyl)-3-(2-thienyl)-2-propenamide] | – | 0.9 ± 0.1 | 2.1 ± 0.3 | Antagonist activity compared with the parent analog or OX1a (second screen) [1]: well tolerated; Mechanism of inhibition of Orco agonist (OLC12) activation [1]: competitive mechanism; IC50 ([1]; activated by 10 µM OLC12): 8.8 ± 1.2 µM; IC50 ([1]; activated by 30 µM OLC12): 73 ± 5 µM; IC50 ([2]; 10 nM 3MI): 3.4 ± 0.6 µM; Mechanism of inhibition of odorant activation [2]: non-competitive mechanism; IC50 ([2]; 100 nM 3MI): 2.7 ± 0.4 µM; IC50 ([2]; 1 µM 3MI): 2.5 ± 0.3 µM |
| CCC(=O)c1ccc(NC(=O)c2cccs2)cc1 [OX1r, N-(4-propionylphenyl)-2-thiophenecarboxamide] | – | – | – | Antagonist activity compared with the parent analog or OX1a (second screen) [1]: significant loss of antagonist activity |
| Cc1cccc(NC(=O)c2cccs2)c1 [OX1c, N-(3-methylphenyl)-2-thiophenecarboxamide] | significantly improved antagonist activity | – | – | – |
| Cc1cccc(C)c1NC(=O)c1sccc1Cl [OX1p, 3-chloro-N-(2,6-dimethylphenyl)-2-thiophenecarboxamide] | – | 1.2 ± 0.1 | 7.2 ± 0.6 | Antagonist activity compared with the parent analog or OX1a (second screen) [1]: significant loss of antagonist activity |
| Cc1ccc(CNC(=O)c2cccs2)cc1 [OX3a, N-(4-methylbenzyl)-2-thiophenecarboxamide] | improved antagonist activity | 1.0 ± 0.1 | 1.7 ± 0.2 | Mechanism of inhibition of Orco agonist (OLC12) activation [1]: competitive mechanism; IC50 ([1]; activated by 10 µM OLC12): 12 ± 1 µM; IC50 ([1]; activated by 30 µM OLC12): 28 ± 2 µM; IC50 ([2]; 10 nM 3MI): 2.6 ± 0.3 µM; Mechanism of inhibition of odorant activation [2]: non-competitive mechanism; IC50 ([2]; 100 nM 3MI): 2.3 ± 0.2 µM; IC50 ([2]; 1 µM 3MI): 1.9 ± 0.1 µM |
| O=C(Nc1cccc(Cl)c1)c1cccs1 [OX1g, N-(3-cholorphenyl)-2-thiophenecarboxamide] | significant improvement | 1.0 ± 0.1 | 13 ± 1 | – |
| Cc1ccc(NC(=O)c2sccc2Cl)c(C)c1 [OX1o, 3-chloro-N-(2,4-dimethylphenyl)-2-thiophenecarboxamide] | – | 1.1 ± 0.1 | 5.5 ± 0.7 | Antagonist activity compared with the parent analog or OX1a (second screen) [1]: significant loss of antagonist activity |
| O=C(NC1CCCCC1)c1cccs1 [OX2, N-cyclohexyl-2-thiophenecarboxamide] | failed to significantly improve antagonist activity | – | – | – |
| O=C(Nc1cccc(Br)c1)c1cccs1 [OX1f, N-(3-bromophenyl)-2-thiophenecarboxamide] | significant improvement | – | – | – |
| O=C(NCc1ccccc1)c1cccs1 [OX3b, N-benzyl-2-thiophenecarboxamide] | – | 1.1 ± 0.1 | 5.1 ± 0.5 | Antagonist activity compared with the parent analog or OX1a (second screen) [1]: well tolerated |
| Cc1cc(C)c(NC(=O)c2cccs2)c(C)c1 [OX1l, N-mesityl-2-thiophenecarboxamide] | significantly improved antagonist activity | 1.5 ± 0.1 | 3.8 ± 0.3 | Mechanism of inhibition of Orco agonist (OLC12) activation [1]: competitive mechanism; IC50 ([1]; activated by 10 µM OLC12): 8.3 ± 0.5 µM; IC50 ([1]; activated by 30 µM OLC12): 24 ± 3 µM; IC50 ([2]; 10 nM 3MI): 17 ± 1 µM; Mechanism of inhibition of odorant activation [2]: non-competitive mechanism; IC50 ([2]; 100 nM 3MI): 16 ± 1 µM; IC50 ([2]; 1 µM 3MI): 19 ± 2 µM |
| Cc1c[nH]c2ccccc12 [Compound 3MI, 3-methylindole] | – | – | – | EC50 ([3]; 3MI alone, read-out: EC50 for activation of Cqui\Orco+Cqui\Or21 by 3MI): 32 ± 7 nM; EC50 ([3]; in presence of 50 µM OX1a, read-out: EC50 for 3MI activation of Cqui\Orco+Cqui\Or21): 37 ± 7 nM |
| COc1cccc(NC(=O)c2cccs2)c1 [OX1h, N-(3-methoxyphenyl)-2-thiophenecarboxamide] | significantly improved antagonist activity | – | – | – |
| CCn1c(SCC(=O)Nc2ccc(C(C)C)cc2)nnc1-c1ccncc1 [OLC12, 2-((4-ethyl-5-(4-pyridinyl)-4H-1,2,4-triazol-3-yl)sulfanyl)-N-(4-isopropylphenyl)-acetamide] | – | – | – | nH for OLC12 activation of Cqui\Orco+Cqui\Or21 [3]: 1.42 ± 0.32; EC50 ([3]; read-out: EC50 for OLC12 activation of Cqui\Orco+Cqui\Or21): 6600 ± 1400 nM |
| COc1ccc(NC(=O)c2cccs2)cc1 [OX1e, N-(4-methoxyphenyl)-2-thiophenecarboxamide] | significantly improved antagonist activity | – | – | – |
| O=C(Nc1cccc(Cl)c1)c1sccc1Cl [OX1q, 3-chloro-N-(3-chlorophenyl)-2-thiophenecarboxamide] | – | 0.9 ± 0.1 | 7.8 ± 0.9 | Antagonist activity compared with the parent analog or OX1a (second screen) [1]: well tolerated |
| CCN(C(=O)c1cccs1)c1ccccc1 [OX1n, N-ethyl-N-phenyl-2-thiophenecarboxamide] | improved antagonist activity | – | – | – |
